The values that follow come from article doi:10.1101/2021.07.01.450682v1 (biorxiv, 2021).

Data set [1] deals with T1, PfLPL3 (lysophospholipase 3; recombinant hydrolase domain) (Plasmodium falciparum, UniProt Q8IK68).
T1 sequence (Q8IK68 41-338): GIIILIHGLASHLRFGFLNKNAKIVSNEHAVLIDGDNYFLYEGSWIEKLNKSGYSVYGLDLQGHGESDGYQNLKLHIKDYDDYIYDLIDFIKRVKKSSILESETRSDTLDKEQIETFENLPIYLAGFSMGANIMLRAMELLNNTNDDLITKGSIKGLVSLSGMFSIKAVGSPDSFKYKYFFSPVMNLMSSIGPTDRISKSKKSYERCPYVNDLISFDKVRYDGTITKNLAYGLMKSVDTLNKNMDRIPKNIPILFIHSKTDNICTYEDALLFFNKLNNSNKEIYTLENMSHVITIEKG
The data set can be described thus: coupled fluorescent lysophospholipase assay. Type of data set: biochemical. The settings on record: 16:0 LPC substrate; 50 mM Tris pH 8.0, 5 mM CaCl2; 20 μg enzyme in 200 μl.

Substrate in the data set “purified protein”: CCCCCCCCCCCCCCCC(=O)OC[C@@H](O)COP(=O)([O-])OCC[N+](C)(C)C
The data set can be described thus: purified protein. The settings on record: 50 mM Tris pH 8.0, 5 mM CaCl2, 20 μg enzyme.

As to `CCOc1cc(Br)c(C(C)NC(=O)c2cccc(OC)c2)cc1OCC` (stereo not drawn) [PCB7, MMV665796], the IC50 (usually the concentration that gives 50% inhibition) in data set [1] was 0.92 µM.
Still for that read-out and setting: in the case of `O=C(CCc1ccccc1)c1ccccc1OCC(O)CN1CCCCC1` (stereo not drawn) [PCB6, MMV009015] it was 1.26 µM.

B1: PfLPL3 (lysophospholipase 3; recombinant hydrolase domain) (Plasmodium falciparum 3D7) (protein)
chain: GIIILIHGLASHLRFGFLNKNAKIVSNEHAVLIDGDNYFLYEGSWIEKLNKSGYSVYGLDLQGHGESDGYQNLKLHIKDYDDYIYDLIDFIKRVKKSSILESETRSDTLDKEQIETFENLPIYLAGFSMGANIMLRAMELLNNTNDDLITKGSIKGLVSLSGMFSIKAVGSPDSFKYKYFFSPVMNLMSSIGPTDRISKSKKSYERCPYVNDLISFDKVRYDGTITKNLAYGLMKSVDTLNKNMDRIPKNIPILFIHSKTDNICTYEDALLFFNKLNNSNKEIYTLENMSHVITIEKG
Take B1: the Km – broadly, the substrate concentration at which the rate is half of its maximum – in the data set “purified protein” was found to be 49.25 µM.
